Reference: ChEMBL document CHEMBL4152303, “Structure-activity relationships of imidazothiazinones and analogs as antagonists of the cannabinoid-activated orphan G protein-coupled receptor GPR18” (Eur J Med Chem, 2018)

What was measured:
[1] = target: T1, N-arachidonyl glycine receptor (Homo sapiens, UniProt Q14330); experiment: Agonist activity at recombinant full length human GPR18 expressed in CHO cells assessed as forskolin-stimulated cAMP accumulation after 10 mins by enzyme immunoassay; type: functional, cell-based
T1 sequence (Q14330 whole entry): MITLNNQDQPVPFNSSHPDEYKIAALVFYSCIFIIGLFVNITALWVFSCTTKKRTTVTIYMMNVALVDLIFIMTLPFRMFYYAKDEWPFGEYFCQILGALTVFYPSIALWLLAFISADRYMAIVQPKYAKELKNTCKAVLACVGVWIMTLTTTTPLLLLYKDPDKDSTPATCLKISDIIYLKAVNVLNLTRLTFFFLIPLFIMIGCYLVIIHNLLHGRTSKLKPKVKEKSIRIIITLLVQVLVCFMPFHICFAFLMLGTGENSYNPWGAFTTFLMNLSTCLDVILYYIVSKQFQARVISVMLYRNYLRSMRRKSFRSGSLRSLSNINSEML

[2] = target: T1, N-arachidonyl glycine receptor; experiment: Agonist activity at recombinant human GPR18 expressed in HEK293 cells assessed as induction of p44/42 MAPK phosphorylation after 5 mins by Western blot analysis; type: functional, cell-based
[3] = target: T2, G-protein coupled receptor 55 (Homo sapiens, UniProt Q9Y2T6); experiment: Agonist activity at recombinant human GPR55 expressed in CHO cells assessed as increase in beta-arrestin recruitment incubated for 60 mins measured for 1 sec by luminescence assay; type: functional, cell-based
T2 sequence (Q9Y2T6 whole entry): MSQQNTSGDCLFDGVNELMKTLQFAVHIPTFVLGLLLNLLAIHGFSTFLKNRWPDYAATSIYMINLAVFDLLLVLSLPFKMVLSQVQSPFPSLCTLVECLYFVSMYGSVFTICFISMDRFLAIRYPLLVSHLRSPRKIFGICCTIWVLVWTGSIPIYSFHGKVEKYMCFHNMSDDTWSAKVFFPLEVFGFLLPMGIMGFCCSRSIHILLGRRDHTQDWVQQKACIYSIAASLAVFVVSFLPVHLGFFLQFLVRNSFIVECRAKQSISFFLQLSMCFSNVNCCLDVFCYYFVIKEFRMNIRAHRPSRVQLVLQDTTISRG

[4] = target: Cannabinoid receptor 2 (Homo sapiens, UniProt P34972); experiment: Displacement of [3H]CP55940 from recombinant human CB2 receptor expressed in CHO cell membranes after 2 hrs by liquid scintillation counting method; settings: for inhibition: concentration not given here
Sequence of Cannabinoid receptor 2 (P34972 whole entry): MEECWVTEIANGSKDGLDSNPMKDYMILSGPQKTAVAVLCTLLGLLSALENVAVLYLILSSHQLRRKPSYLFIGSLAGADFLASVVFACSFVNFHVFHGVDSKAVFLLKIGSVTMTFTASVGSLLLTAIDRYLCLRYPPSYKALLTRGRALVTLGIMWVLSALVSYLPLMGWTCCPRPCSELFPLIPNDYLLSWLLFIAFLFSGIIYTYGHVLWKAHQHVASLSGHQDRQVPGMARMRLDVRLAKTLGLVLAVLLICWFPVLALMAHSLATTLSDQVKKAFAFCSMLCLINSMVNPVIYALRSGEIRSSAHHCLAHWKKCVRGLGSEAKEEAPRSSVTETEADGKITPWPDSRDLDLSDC

[5] = target: T3, N-arachidonyl glycine receptor (Homo sapiens) (UniProt Q14330); experiment: (§1) Antagonist activity at recombinant human GPR18 expressed in CHO cells assessed as inhibition of delta9-THC-induced beta-arrestin recruitment preincubated for 60 mins followed by delta9-THC addition for 90 mins measured for 1 sec by luminescence assay; type: functional, cell-based
T3 sequence (whole entry): T1 sequence (Q14330 whole entry)

[6] = target: T1, N-arachidonyl glycine receptor; experiment: as §1; type: functional, cell-based
[7] = target: T2, G-protein coupled receptor 55; experiment: Antagonist activity at recombinant human GPR55 expressed in CHO cells assessed as inhibition of lysophosphatidylinositol-induced beta-arrestin recruitment preincubated for 60 mins followed by lysophosphatidylinositol addition for 90 mins measured for 1 sec by luminescence assay; type: functional, cell-based
[8] = target: T3, N-arachidonyl glycine receptor (Homo sapiens); experiment: (§2) Agonist activity at recombinant human GPR18 expressed in CHO cells assessed as increase in beta-arrestin recruitment incubated for 60 mins measured for 1 sec by luminescence assay; type: functional, cell-based
[9] = target: T1, N-arachidonyl glycine receptor; experiment: as §2; type: functional, cell-based
[10] = target: Cannabinoid receptor 1 (Homo sapiens, UniProt P21554); experiment: Displacement of [3H]CP55940 from recombinant human CB1 receptor expressed in CHO cell membranes after 2 hrs by liquid scintillation counting method; settings: for inhibition: concentration not given here
Sequence of Cannabinoid receptor 1 (P21554 whole entry): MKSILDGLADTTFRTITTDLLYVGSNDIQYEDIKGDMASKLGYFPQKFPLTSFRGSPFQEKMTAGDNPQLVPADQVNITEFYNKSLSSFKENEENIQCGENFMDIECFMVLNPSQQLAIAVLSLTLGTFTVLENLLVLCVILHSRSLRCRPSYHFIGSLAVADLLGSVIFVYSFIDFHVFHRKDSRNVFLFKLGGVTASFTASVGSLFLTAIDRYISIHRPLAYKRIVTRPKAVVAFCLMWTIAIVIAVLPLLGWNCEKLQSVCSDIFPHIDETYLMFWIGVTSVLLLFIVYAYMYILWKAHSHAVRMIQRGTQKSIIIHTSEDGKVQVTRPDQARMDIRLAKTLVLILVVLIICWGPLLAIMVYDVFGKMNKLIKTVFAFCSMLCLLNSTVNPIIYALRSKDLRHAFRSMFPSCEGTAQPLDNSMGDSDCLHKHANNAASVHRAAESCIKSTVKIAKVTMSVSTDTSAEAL

[11] = target: T3, N-arachidonyl glycine receptor (Homo sapiens); experiment: Competitive antagonist activity at recombinant human GPR18 expressed in CHO cells assessed as inhibition of delta9-THC-induced beta-arrestin recruitment preincubated for 60 mins followed by delta9-THC addition for 90 mins measured for 1 sec by luminescence assay; type: functional, cell-based

| SMILES | EC50 [1] | EC50 [2] | %max [3] | EC50 [3] | Ki [4] | inhibition [4] | Imax [5] | IC50 [6] | IC50 [7] | Imax [7] | %max [8] | EC50 [9] | Ki [10] | inhibition [10] | Kb [11] | pKb [11] |
| --- | --- | --- | --- | --- | --- | --- | --- | --- | --- | --- | --- | --- | --- | --- | --- | --- |
| CCCCC/C=C\C/C=C\C/C=C\C/C=C\CCCC(=O)NCC(=O)O [ARACHIDONOYL GLYCINE] | 0.02 µM | 0.044 µM |  |  |  |  |  |  |  |  |  |  |  |  |  |  |
| O=C1/C(=C/c2cccc(OCCOc3ccc(Cl)cc3)c2)N=C2SCCCN12 |  |  | -20% | > 10 µM | > 10 µM | -9% | 123% | 5 µM | 10.1 µM | 99% | -10% | > 10 µM | > 10 µM | 21% |  |  |
| O=C1/C(=C/c2cccc(OCc3ccc(Br)cc3)c2)N=C2SCCCN12 |  |  | -19% | > 10 µM | > 10 µM | 4% | 74% | 1.73 µM | 45.8 µM | 116% | -9% | > 10 µM | > 10 µM | 4% |  |  |
| O=C1NC(SCc2ccc(Br)cc2)=N/C1=C\c1cccc(OCc2ccc(Cl)cc2)c1 |  |  | 13% | > 10 µM | > 10 µM | 36% | 44% | 2.29 µM | > 10 µM | 36% | -11% | > 10 µM | > 10 µM | 31% |  |  |
| O=C1NC(SCCc2ccccc2)=N/C1=C\c1cccc(OCc2ccc(Cl)cc2)c1 |  |  | 21% | > 10 µM | > 10 µM | 33% | 103% | 4.78 µM | > 10 µM | 27% | 2% | > 10 µM | > 10 µM | 18% |  |  |
| O=C1/C(=C/c2cccc(OCCCc3ccccc3)c2)N=C2SCCCN12 |  |  | -49% | > 10 µM | > 10 µM | 23% | 136% | 1.49 µM | 6.04 µM | 132% | -30% | > 10 µM | > 10 µM | 11% |  |  |
| O=C1/C(=C/c2cccc(OCCCCCCOc3ccc(Cl)cc3)c2)N=C2SCCCN12 |  |  | -15% | > 10 µM | > 10 µM | 12% | 122% | 0.65 µM | > 10 µM | 37% | -37% | > 10 µM | > 10 µM |  | 0.626 µM | 6.2 |
| O=C1/C(=C/c2cccc(OCCCCCCCOc3ccc(Cl)cc3)c2)N=C2SCCCN12 |  |  | 34% | > 10 µM | > 10 µM | 15% | 97% | 1.71 µM | > 10 µM | 16% | 3% | > 10 µM | > 10 µM | 46% |  |  |
| O=C1/C(=C/c2cccc(OCCCCCCOc3ccccc3Cl)c2)N=C2SCCCN12 |  |  | 0% | > 10 µM | > 10 µM | 29% | 41% | > 10 µM | 3.41 µM | 79% | 10% | > 10 µM | > 10 µM | 19% |  |  |
| O=C1NC(=S)S/C1=C\c1cccc(OCc2ccc(Cl)cc2)c1 |  |  | 29% | > 10 µM | > 10 µM | 26% | 22% | > 10 µM | > 10 µM | -18% | -38% | > 10 µM | > 10 µM | 47% |  |  |
